Twelve compounds from US20260273072A1, “NOVEL PLK1 DEGRADATION INDUCING COMPOUND” (UPPTHERA, INC., priority 2023, published 2026) can be followed below.

Common to all, as to assay type: cell-based
The test system of one experiment is NCI-H69 cell line. Put plainly: Cell viability assay for NCI-H69 cell line (EZ-Cytox). Conditions: Homo sapiens, NCI-H69, 120 h; H69 cells, 5 days, 3000 nM to 0.46 nM. Put shortly:
(§1)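 Human SCLC lines cultured with compound for 5 days in a CO2 incubator; viability read by EZ-Cytox absorbance at 450 nm after 3 min shaking. IC50 reported in activity bins (A: <30 nM up to E: <400 nM).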

The next experiment concerns the target T1, PLK1 (Homo sapiens, UniProt P53350).
T1 construct: endogenous in cells; host or cells: HeLa LgBit (Plk1-HiBit KI): HeLa stably expressing LgBit, with a CRISPR/Cas9 knock-in of HiBit at the endogenous PLK1 locus
The experiment can be described thus: Luciferase assay for PLK1 in HeLa LgBit (Plk1-HiBit KI) cell line. Conditions: 300 nM compound, luminescence after 9 hours. The method, boiled down:
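HeLa LgBit cells with endogenous PLK1 C-terminally HiBit-tagged by CRISPR knock-in; released from 24 h 2 mM thymidine block, seeded, grown 18 h. Compounds at 300 nM with Endurazine substrate; luminescence (470-480 nm) tracked in real time, expressed as ratio to DMSO.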

In a further experiment the test system is MRC-5 cell line. Put plainly: Cell viability assay for MRC-5 cell line (EZ-Cytox). The note with it: Homo sapiens, MRC5, 120 h; MRC-5 normal cell line, 5 days, 10000 nM to 1.52 nM; read-out: Activity: IC50 value, cell viability, MRC-5 cell line (Exemplary Compounds). As to the method:
4. Cell Viability Assay for MRC-5 Cell Line
(1) Culture of MRC-5 Cell Line
The MRC-5 cell line was purchased from KCLB. Passage of cultured cells was maintained within P15.
(2) Treatment of Compounds of the Present Invention
Then, it was cultured in 37° C. CO2 incubator (Thermo Fisher Scientific) for 5 days.
(3) Cytotoxicity Experiment
CO2 incubator for 4 hours.

Another experiment has as its system NCI-H526 cell line. The experiment can be described thus: Cell viability assay for NCI-H526 cell line (EZ-Cytox). The note with it: Homo sapiens, NCI-H526, 120 h; H526 cells, 5 days, 3000 nM to 0.46 nM. The method, boiled down:
as §1

T1 sequence (P53350 whole entry): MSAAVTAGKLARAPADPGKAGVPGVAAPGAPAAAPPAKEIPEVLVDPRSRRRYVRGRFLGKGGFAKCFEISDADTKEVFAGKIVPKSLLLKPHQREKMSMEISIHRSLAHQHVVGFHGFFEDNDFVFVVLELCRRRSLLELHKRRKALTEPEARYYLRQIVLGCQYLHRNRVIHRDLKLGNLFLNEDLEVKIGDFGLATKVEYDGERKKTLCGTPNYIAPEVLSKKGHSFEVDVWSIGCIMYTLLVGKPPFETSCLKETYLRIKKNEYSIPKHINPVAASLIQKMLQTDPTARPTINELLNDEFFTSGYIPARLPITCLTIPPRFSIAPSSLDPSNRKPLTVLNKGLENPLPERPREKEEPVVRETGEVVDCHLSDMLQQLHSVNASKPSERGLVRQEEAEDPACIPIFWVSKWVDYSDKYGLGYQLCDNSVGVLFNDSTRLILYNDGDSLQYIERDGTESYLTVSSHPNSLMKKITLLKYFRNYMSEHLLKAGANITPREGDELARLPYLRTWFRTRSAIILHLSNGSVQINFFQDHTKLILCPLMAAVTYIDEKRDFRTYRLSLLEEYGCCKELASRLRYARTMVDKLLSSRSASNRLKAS

For the compound `COc1cc(C(=O)NN2CCC(CCN3CCN(c4cc(F)c(NC5CCC(=O)NC5=O)cc4F)CC3)CC2)c(F)cc1Nc1ncc2c(n1)N(C(C)C)CC(F)(F)C(=O)N2C` (stereo not drawn) [Compound 60, 4-((7,7-difluoro-9-isopropyl-5-methyl-6-oxo-6,7,8,9-tetrahydro-5H-pyrimido[4,5-b][1,4]diazepin-2-yl)amino)-N-(4-(2-(4-(4-((2,6-dioxopiperidin-3-yl)amino)-2,5-difluorophenyl)piperazin-1-yl)ethyl)piperidin-1-yl)-2-fluoro-5-methoxybenzamide], the figures for the IC50 with NCI-H69 cell line, with MRC-5 cell line and in the experiment on NCI-H526 cell line were less than 50 nM, greater than 10000 nM and less than 50 nM, respectively. The “Activity: ratio of the luminescence value of compound treatment group to DMSO treatment group” value (“Activity: ratio” for short) on PLK1 was “++ (++: <0.5)”.
For `COc1cc(C(=O)NC2CCN(CCC3CCN(c4cc(F)c(NC5CCC(=O)NC5=O)cc4F)CC3)CC2)ccc1Nc1ncc2c(n1)N(C1CCCC1)CC(F)(F)C(=O)N2C` (stereo not drawn) [Compound 63, 4-((9-cyclopentyl-7,7-difluoro-5-methyl-6-oxo-6,7,8,9-tetrahydro-5H-pyrimido[4,5-b][1,4]diazepin-2-yl)amino)-N-(1-(2-(1-(4-((2,6-dioxopiperidin-3-yl)amino)-2,5-difluorophenyl)piperidin-4-yl)ethyl)piperidin-4-yl)-3-methoxybenzamide], the IC50 was less than 50 nM in the experiment with NCI-H69 cell line, greater than 10000 nM in the experiment with MRC-5 cell line and less than 30 nM in the experiment with NCI-H526 cell line. For the same compound, the “Activity: ratio” value on PLK1 was “+++ (+++: <0.3)”.
Take `CCN1CC(F)(F)C(=O)N(C)c2cnc(Nc3ccc(C(=O)NC4CCN(CCC5CCN(c6cc(F)c(NC7CCC(=O)NC7=O)cc6F)CC5)CC4)cc3OC)nc21` (stereo not drawn) [Compound 64, N(1-(2-(1-(4-((2,6-dioxopiperidin-3-yl)amino)-2,5-difluorophenyl)piperidin-4-yl)ethyl)piperidin-4-yl)-4-((9-ethyl-7,7-difluoro-5-methyl-6-oxo-6,7,8,9-tetrahydro-5H-pyrimido[4,5-b][1,4]diazepin-2-yl)amino)-3-methoxybenzamide]: the IC50 in the experiment with NCI-H69 cell line was less than 30 nM; with MRC-5 cell line it was greater than 10000 nM; with NCI-H526 cell line it was less than 30 nM. On PLK1, the “Activity: ratio” value is given as “++ (++: <0.5)”.
As for `COc1cc(-c2nnc(CN3CCC(CCN4CCN(c5cc(F)c(NC6CCC(=O)NC6=O)cc5F)CC4)CC3)o2)ccc1Nc1ncc2c(n1)N(C1CCCC1)CC(F)(F)C(=O)N2C` (stereo not drawn) [Compound 65, 3-((4-(4-(2-(1-((5-(4-((9-cyclopentyl-7,7-difluoro-5-methyl-6-oxo-6,7,8,9-tetrahydro-5H-pyrimido[4,5-b][1,4]diazepin-2-yl)amino)-3-methoxyphenyl)-1,3,4-oxadiazol-2-yl)methyl)piperidin-4-yl)ethyl)piperazin-1-yl)-2,5-difluorophenyl)amino)piperidine-2,6-dione], the IC50 is less than 200 nM in the experiment with NCI-H69 cell line, greater than 10000 nM in the experiment with MRC-5 cell line and less than 100 nM in the experiment with NCI-H526 cell line. Moreover, the “Activity: ratio” value at PLK1 is on record as “++ (++: <0.5)”.
For `COc1cc(-c2nnc(N3CCC(CCN4CCN(c5cc(F)c(NC6CCC(=O)NC6=O)cc5F)CC4)CC3)o2)ccc1Nc1ncc2c(n1)N(C1CCCC1)CC(F)(F)C(=O)N2C` (stereo not drawn) [Compound 66, 3-((4-(4-(2-(1-(5-(4-((9-cyclopentyl-7,7-difluoro-5-methyl-6-oxo-6,7,8,9-tetrahydro-5H-pyrimido[4,5-b][1,4]diazepin-2-yl)amino)-3-methoxyphenyl)-1,3,4-oxadiazol-2-yl)piperidin-4-yl)ethyl)piperazin-1-yl)-2,5-difluorophenyl)amino)piperidine-2,6-dione], in that order: less than 200 nM, greater than 10000 nM, less than 200 nM and “++ (++: <0.5)”.
For `COc1cc(C(=O)NC2CCN(CCN3CCN(c4cc(F)c(NC5CCC(=O)NC5=O)cc4F)CC3)CC2)ccc1Nc1ncc2c(n1)N(C1CCCC1)CC(F)(F)C(=O)N2C` (stereo not drawn) [Compound 67, 4-((9-cyclopentyl-7,7-difluoro-5-methyl-6-oxo-6,7,8,9-tetrahydro-5H-pyrimido[4,5-b][1,4]diazepin-2-yl)amino)-N-(1-(2-(4-(4-((2,6-dioxopiperidin-3-yl)amino)-2,5-difluorophenyl)piperazin-1-yl)ethyl)piperidin-4-yl)-3-methoxybenzamide], in that order: less than 30 nM, greater than 10000 nM, less than 30 nM and “++ (++: <0.5)”.
In the case of `COc1cc(C(=O)NC2CCN(CCN3CCN(c4cc(F)c(NC5CCC(=O)NC5=O)cc4F)CC3)CC2)ncc1Nc1ncc2c(n1)N(C1CCCC1)CC(F)(F)C(=O)N2C` (stereo not drawn) [Compound 68, 5-((9-cyclopentyl-7,7-difluoro-5-methyl-6-oxo-6,7,8,9-tetrahydro-5H-pyrimido[4,5-b][1,4]diazepin-2-yl)amino)-N-(1-(2-(4-(4-((2,6-dioxopiperidin-3-yl)amino)-2,5-difluorophenyl)piperazin-1-yl)ethyl)piperidin-4-yl)-4-methoxypicolinamide], the IC50 in the experiment on NCI-H69 cell line was less than 100 nM; in the experiment on MRC-5 cell line, greater than 10000 nM; in the experiment on NCI-H526 cell line, less than 50 nM. For the same compound, the “Activity: ratio” value at PLK1 is recorded as “++ (++: <0.5)”.
For `COc1cc(C(=O)NC2CC3(CCN(CC4CCN(c5cc(F)c(NC6CCC(=O)NC6=O)cc5F)CC4)CC3)C2)c(F)cc1Nc1ncc2c(n1)N(C(C)C)CC(F)(F)C(=O)N2C` (stereo not drawn) [Compound 69, 4-((7,7-difluoro-9-isopropyl-5-methyl-6-oxo-6,7,8,9-tetrahydro-5H-pyrimido[4,5-b][1,4]diazepin-2-yl)amino)-N-(7-((1-(4-((2,6-dioxopiperidin-3-yl)amino)-2,5-difluorophenyl)piperidin-4-yl)methyl)-7-azaspiro[3.5]nonan-2-yl)-2-fluoro-5-methoxybenzamide], the IC50 with NCI-H69 cell line was less than 50 nM; with MRC-5 cell line it was greater than 10000 nM; in the experiment with NCI-H526 cell line, less than 30 nM. At PLK1, the “Activity: ratio” value is “++ (++: <0.5)”.
Consider `COc1cc(C(=O)NN2CCC(CCN3CCN(c4ccc(NC5CCC(=O)NC5=O)c(F)c4F)CC3)CC2)ccc1Nc1ncc2c(n1)N(C1CCCC1)CC(F)(F)C(=O)N2C` (stereo not drawn) [Compound 71, 4-((9-cyclopentyl-7,7-difluoro-5-methyl-6-oxo-6,7,8,9-tetrahydro-5H-pyrimido[4,5-b][1,4]diazepin-2-yl)amino)-N-(4-(2-(4-(4-((2,6-dioxopiperidin-3-yl)amino)-2,3-difluorophenyl)piperazin-1-yl)ethyl)piperidin-1-yl)-3-methoxybenzamide], for which the IC50 with NCI-H69 cell line is less than 30 nM; in the experiment with MRC-5 cell line, greater than 10000 nM; in the experiment with NCI-H526 cell line it was less than 30 nM. The “Activity: ratio” value at PLK1 is listed as “+++ (+++: <0.3)”.
Turning to `COc1cc(C(=O)NC2CCN(CCN3CCN(c4cc(Cl)c(NC5CCC(=O)NC5=O)cc4F)CC3)CC2)c(F)cc1Nc1ncc2c(n1)N(C(C)C)CC(F)(F)C(=O)N2C` (stereo not drawn) [Compound 72, N(1-(2-(4-(5-chloro-4-((2,6-dioxopiperidin-3-yl)amino)-2-fluorophenyl)piperazin-1-yl)ethyl)piperidin-4-yl)-4-((7,7-difluoro-9-isopropyl-5-methyl-6-oxo-6,7,8,9-tetrahydro-5H-pyrimido[4,5-b][1,4]diazepin-2-yl)amino)-2-fluoro-5-methoxybenzamide], the IC50 is less than 100 nM in the experiment with NCI-H69 cell line, greater than 10000 nM with MRC-5 cell line and less than 50 nM with NCI-H526 cell line. Besides, the “Activity: ratio” value at PLK1 is on record as “++ (++: <0.5)”.
For `COc1cc(C(=O)NC2CCN(CCN3CCN(c4cc(Cl)c(NC5CCC(=O)NC5=O)cc4F)CC3)CC2)c(F)cc1Nc1ncc2c(n1)N(C1CCCC1)CC(F)(F)C(=O)N2C` (stereo not drawn) [Compound 73, N(1-(2-(4-(5-chloro-4-((2,6-dioxopiperidin-3-yl)amino)-2-fluorophenyl)piperazin-1-yl)ethyl)piperidin-4-yl)-4-((9-cyclopentyl-7,7-difluoro-5-methyl-6-oxo-6,7,8,9-tetrahydro-5H-pyrimido[4,5-b][1,4]diazepin-2-yl)amino)-2-fluoro-5-methoxybenzamide], in that order: less than 100 nM, greater than 10000 nM, less than 50 nM and “++ (++: <0.5)”.
Regarding `COc1cc(C(=O)NN2CCC(CCN3CCN(c4cc(C)c(NC5CCC(=O)NC5=O)cc4F)CC3)CC2)ccc1Nc1ncc2c(n1)N(C1CCCC1)CC(F)(F)C(=O)N2C` (stereo not drawn) [Compound 74, 4-((9-cyclopentyl-7,7-difluoro-5-methyl-6-oxo-6,7,8,9-tetrahydro-5H-pyrimido[4,5-b][1,4]diazepin-2-yl)amino)-N-(4-(2-(4-(4-((2,6-dioxopiperidin-3-yl)amino)-2-fluoro-5-methylphenyl)piperazin-1-yl)ethyl)piperidin-1-yl)-3-methoxybenzamide], the IC50 in the experiment with NCI-H69 cell line is less than 30 nM; in the experiment with MRC-5 cell line it was greater than 10000 nM; in the experiment with NCI-H526 cell line it was less than 30 nM. For the same compound, the “Activity: ratio” value on PLK1 is listed as “+++ (+++: <0.3)”.
